{"source": "patent US6395747B1", "about": "“Remedies for multiple sclerosis” (Kyorin Pharmaceutical Co., Ltd., priority 2001, dated 2002)", "key": {"[1]": {"system": "EAE model", "assay": "Histological evaluation of spinal cord inflammation in rat EAE model", "format": "in vivo, DA strain rats", "conditions": "10 mg/kg once a day through a feeding tube, 12 days after immunization"}, "[2]": {"system": "EAE model", "assay": "Clinical disease ameliorating effect in rat EAE (multiple sclerosis) model", "format": "in vivo, DA strain rats", "conditions": "DA rats"}, "[3]": {"conditions": "10 mg/kg once a day through a feeding tube"}}, "data": [{"smiles": "CC(C)C(=O)c1c(C(C)C)nn2ccccc12", "note": "[ibudilast]", "values": [{"measurement": "histological effect in comparison with the control", "setting": "[1]", "value": "significant effect histologically"}, {"measurement": "average histological score (inflammation, lumbar spinal cord, hematoxylin-eosin)", "setting": "[1]; score scale 0-4", "value": "about 2.0"}, {"measurement": "clinical disease condition (clinical score) versus control group", "setting": "[2]; 2 mg/kg once a day through a feeding tube", "value": "tendency of amelioration"}, {"measurement": "body weight decrease", "setting": "[2]; [3]", "value": "suppressed significantly"}, {"measurement": "clinical disease condition (clinical score) versus control group", "setting": "[2]; [3]", "value": "significant amelioration"}, {"measurement": "disease onset", "setting": "[2]; ibudilast-treated group, oral once a day", "value": "delayed"}]}]}
